How the values were obtained:
Assay type in all cases: functional
[1] = test system: SK-MEL-28; test: Growth inhibition of human SK-MEL-28 cells; conditions: for CC50: read-out: LC50 (the source's name)
[2] = test system: NCI-H226; test: Growth inhibition of human NCI-H226 cells; conditions: for CC50: read-out: LC50 (the source's name)
[3] = Growth inhibition of human HCT15 cells; conditions: for GI50: HCT-15
[4] = test system: Staphylococcus aureus; test: Antimicrobial activity against Staphylococcus aureus ATCC 25923 after 12 to 18 hrs by 2-fold serial dilution method
[5] = test system: A549; test: Growth inhibition of human A549 cells; conditions: for CC50: read-out: LC50 (the source's name)
[6] = test system: SK-MEL-2; test: Growth inhibition of human SK-MEL-2 cells; conditions: for CC50: read-out: LC50 (the source's name)
[7] = test system: M14; test: Growth inhibition of human M14 cells; conditions: for CC50: read-out: LC50 (the source's name)
[8] = test system: COLO 205; test: Growth inhibition of human COLO205 cells; conditions: for CC50: read-out: LC50 (the source's name)
[9] = Growth inhibition of human SF295 cells; conditions: SF-295
[10] = Growth inhibition of human NCI60 cells assessed as cell growth; design: concentration or dose not given beside the values
[11] = test system: SK-MEL-5; test: Growth inhibition of human SK-MEL-5 cells
[12] = Growth inhibition of human HCC2998 cells; conditions: for GI50: HCC 2998; for CC50: HCC 2998, read-out: LC50 (the source's name)
[13] = test system: SNB-75; test: Growth inhibition of human SNB75 cells; conditions: for CC50: read-out: LC50 (the source's name)
[14] = test system: SNB-19; test: Growth inhibition of human SNB19 cells
[15] = Growth inhibition of human HOP92 cells; conditions: for GI50: HOP-92; for CC50: HOP-92, read-out: LC50 (the source's name)
[16] = test system: HCT-116; test: Growth inhibition of human HCT116 cells; conditions: for CC50: read-out: LC50 (the source's name)
[17] = test system: Malme-3M; test: Growth inhibition of human MALME-3M cells; conditions: for CC50: read-out: LC50 (the source's name)
[18] = test system: NCI-H322M; test: Growth inhibition of human NCI-H322M cells; conditions: for CC50: read-out: LC50 (the source's name)
[19] = test system: SF-268; test: Growth inhibition of human SF268 cells; conditions: for CC50: read-out: LC50 (the source's name)
[20] = test system: MDA-MB-435; test: Growth inhibition of human MDA-MB-435 cells; conditions: for CC50: read-out: LC50 (the source's name)
[21] = test system: HOP-62; test: Growth inhibition of human HOP62 cells; conditions: for CC50: read-out: LC50 (the source's name)
[22] = Growth inhibition of human UACC62 cells; conditions: for GI50: UACC-62; for CC50: UACC-62, read-out: LC50 (the source's name)
[23] = test system: NCI-H23; test: Growth inhibition of human NCI-H23 cells; conditions: for CC50: read-out: LC50 (the source's name)
[24] = test system: HT-29; test: Growth inhibition of human HT-29 cells
[25] = test system: NCI-H460; test: Growth inhibition of human NCI-H460 cells; conditions: for CC50: read-out: LC50 (the source's name)
[26] = test system: NCI-H522; test: Growth inhibition of human NCI-H522 cells; conditions: for CC50: read-out: LC50 (the source's name)
[27] = test system: KM12; test: Growth inhibition of human KM12 cells; conditions: for CC50: read-out: LC50 (the source's name)
[28] = test system: SW-620; test: Growth inhibition of human SW620 cells; conditions: for CC50: read-out: LC50 (the source's name)
[29] = Growth inhibition of human UACC257 cells; conditions: for GI50: UACC-257; for CC50: UACC-257, read-out: LC50 (the source's name)
[30] = Growth inhibition of human SF539 cells; conditions: for GI50: SF-539; for CC50: SF-539, read-out: LC50 (the source's name)
[31] = test system: U-251; test: Growth inhibition of human U251 cells
[32] = Growth inhibition of human LOXIMVI cells; conditions: LOX IMVI; for CC50: read-out: LC50 (the source's name)

## COc1ccc(-n2n[n+](C)c3c2C(=O)c2ccccc2C3=O)cc1OC.O=S(=O)([O-])C(F)(F)F
[1]
  GI50: 1.34 µM
  CC50: 6.47 µM
[2]
  GI50: 1.3 µM
  CC50: 6.85 µM
[3]
  GI50: 1.11 µM
[3]; HCT-15, read-out: LC50 (the source's name)
  CC50: 6.06 µM
[4]
  MIC: 4 µg/mL
[5]
  GI50: 0.4 µM
  CC50: 8.97 µM
[6]
  GI50: 1.4 µM
  CC50: 7.37 µM
[7]
  GI50: 0.33 µM
  CC50: 3.47 µM
[8]
  GI50: 0.31 µM
  CC50: 5.71 µM
[9]
  GI50: 0.2 µM
  LC50 (concentration killing 50% of cells): 0.95 µM
[10]
  Activity: -31.51%
[11]
  GI50: 0.16 µM
  LC50 (lethal concentration 50): 0.57 µM
[12]
  GI50: 1.65 µM
  CC50: 5.79 µM
[13]
  GI50: 0.82 µM
  CC50: 4.56 µM
[14]
  GI50: 1.14 µM
  LC50: 4.87 µM
[15]
  GI50: 2.27 µM
  CC50: 58.8 µM
[16]
  GI50: 1.16 µM
  CC50: 9.53 µM
[17]
  GI50: 0.21 µM
  CC50: 1.88 µM
[18]
  GI50: 0.3 µM
  CC50: 3.34 µM
[19]
  GI50: 1.23 µM
  CC50: > 100 µM
[20]
  GI50: 0.19 µM
  CC50: 0.64 µM
[21]
  GI50: 1.23 µM
  CC50: 5.64 µM
[22]
  GI50: 1.22 µM
  CC50: 5.09 µM
[23]
  GI50: 1.06 µM
  CC50: > 100 µM
[24]
  GI50: 0.55 µM
  LC50: 22.2 µM
[25]
  GI50: 0.36 µM
  CC50: 8.21 µM
[26]
  GI50: 2 µM
  CC50: 6.86 µM
[27]
  GI50: 1.38 µM
  CC50: 7.23 µM
[28]
  GI50: 1.66 µM
  CC50: 8.87 µM
[29]
  GI50: 1.49 µM
  CC50: 5.34 µM
[30]
  GI50: 0.5 µM
  CC50: 4.08 µM
[31]
  GI50: 1.34 µM
  LC50: 5.11 µM
[32]
  GI50: 1.14 µM

## COc1cc(OC)cc(-n2n[n+](C)c3c2C(=O)c2ccccc2C3=O)c1.O=S(=O)([O-])C(F)(F)F
[1]
  GI50: 3.2 µM
  CC50: 43.3 µM
[2]
  GI50: 1.74 µM
  CC50: 7.76 µM
[3]
  GI50: 1.61 µM
[4]
  MIC: 16 µg/mL
[5]
  GI50: 0.78 µM
  CC50: 8.81 µM
[6]
  GI50: 2.08 µM
  CC50: 12.4 µM
[7]
  GI50: 0.5 µM
  CC50: 4.37 µM
[8]
  GI50: 0.4 µM
  CC50: 5.35 µM
[9]
  GI50: 0.18 µM
  LC50 (concentration killing 50% of cells): 0.61 µM
[10]
  Activity: 23.23%
[11]
  GI50: 0.18 µM
  LC50 (lethal concentration 50): 0.66 µM
[12]
  GI50: 1.5 µM
  CC50: 8.99 µM
[13]
  GI50: 1.63 µM
  CC50: 5.47 µM
[14]
  GI50: 1.25 µM
  LC50: 5.1 µM
[15]
  GI50: 7.07 µM
  CC50: > 100 µM
[16]
  GI50: 2.66 µM
  CC50: 48.6 µM
[17]
  GI50: 0.41 µM
  CC50: 3.72 µM
[18]
  GI50: 0.36 µM
  CC50: 3.68 µM
[19]
  GI50: 3.68 µM
  CC50: > 100 µM
[20]
  GI50: 0.31 µM
[21]
  GI50: 1.51 µM
  CC50: 6.08 µM
[22]
  GI50: 1.41 µM
  CC50: 5.89 µM
[23]
  GI50: 1.26 µM
  CC50: > 100 µM
[24]
  GI50: 1.1 µM
  LC50: > 100 µM
[25]
  GI50: 0.56 µM
  CC50: 8.01 µM
[26]
  GI50: 2.54 µM
  CC50: 29.2 µM
[27]
  GI50: 3.11 µM
  CC50: 42.9 µM
[28]
  GI50: 3 µM
  CC50: > 100 µM
[29]
  GI50: 1.2 µM
  CC50: 5.3 µM
[30]
  GI50: 1.64 µM
  CC50: 5.6 µM
[31]
  GI50: 1.53 µM
  LC50: 5.54 µM
[32]
  GI50: 1.71 µM
  CC50: 7.09 µM

## COc1cc(-n2n[n+](C)c3c2C(=O)c2ccccc2C3=O)cc(OC)c1OC.O=S(=O)([O-])C(F)(F)F
[1]
  GI50: 1.37 µM
  CC50: 7.11 µM
[2]
  GI50: 1.8 µM
  CC50: 18 µM
[3]
  GI50: 1.35 µM
[4]
  MIC: 32 µg/mL
[5]
  GI50: 1.68 µM
  CC50: > 100 µM
[6]
  GI50: 1.75 µM
  CC50: 8.09 µM
[7]
  GI50: 0.48 µM
  CC50: 4.51 µM
[8]
  GI50: 0.39 µM
  CC50: 5.05 µM
[9]
  GI50: 0.54 µM
  LC50 (concentration killing 50% of cells): 4.67 µM
[10]
  Activity: -27.06%
[11]
  GI50: 0.24 µM
  LC50 (lethal concentration 50): 2.32 µM
[12]
  GI50: 1.63 µM
  CC50: 8.22 µM
[13]
  GI50: 1.43 µM
  CC50: 5.34 µM
[14]
  GI50: 1.4 µM
  LC50: 6.99 µM
[15]
  GI50: 1.92 µM
  CC50: > 100 µM
[16]
  GI50: 0.46 µM
  CC50: 18 µM
[17]
  GI50: 0.3 µM
  CC50: 3.26 µM
[18]
  GI50: 0.4 µM
  CC50: 5.27 µM
[19]
  GI50: 0.87 µM
  CC50: > 100 µM
[20]
  GI50: 0.19 µM
  CC50: 0.67 µM
[21]
  GI50: 1.31 µM
  CC50: 7.22 µM
[22]
  GI50: 1.23 µM
  CC50: 6.12 µM
[23]
  GI50: 1.94 µM
[24]
  GI50: 0.34 µM
  LC50: > 100 µM
[25]
  GI50: 0.79 µM
  CC50: > 100 µM
[26]
  GI50: 1.71 µM
  CC50: 8.38 µM
[27]
  GI50: 2.11 µM
  CC50: > 100 µM
[28]
  GI50: 1.99 µM
  CC50: > 100 µM
[29]
  GI50: 1.37 µM
  CC50: 5.81 µM
[30]
  GI50: 0.4 µM
  CC50: 3.8 µM
[31]
  GI50: 1.54 µM
  LC50: 5.52 µM
[32]
  GI50: 1.19 µM
  CC50: > 100 µM
